Test results as given in US20240108634A1, “COMPOSITIONS AND METHODS FOR INHIBITING YAP” (The United States Government as represented by the …, priority 2021, published 2024).

Columns and labels:
[1] = biological target: T1, YAP association with TEAD1-4, SMAD7, p73, FOS, TBXS (Homo sapiens, UniProt P46937); assay: HA-YAP1 immunoprecipitation from LN229 cells, immunoblot for TEAD1-4 and other transcription factors; type: cell-based; details: LN229 cells expressing HA-YAP, 18 h
T1 construct: expressed in transfected cells
T1 sequence (P46937 whole entry): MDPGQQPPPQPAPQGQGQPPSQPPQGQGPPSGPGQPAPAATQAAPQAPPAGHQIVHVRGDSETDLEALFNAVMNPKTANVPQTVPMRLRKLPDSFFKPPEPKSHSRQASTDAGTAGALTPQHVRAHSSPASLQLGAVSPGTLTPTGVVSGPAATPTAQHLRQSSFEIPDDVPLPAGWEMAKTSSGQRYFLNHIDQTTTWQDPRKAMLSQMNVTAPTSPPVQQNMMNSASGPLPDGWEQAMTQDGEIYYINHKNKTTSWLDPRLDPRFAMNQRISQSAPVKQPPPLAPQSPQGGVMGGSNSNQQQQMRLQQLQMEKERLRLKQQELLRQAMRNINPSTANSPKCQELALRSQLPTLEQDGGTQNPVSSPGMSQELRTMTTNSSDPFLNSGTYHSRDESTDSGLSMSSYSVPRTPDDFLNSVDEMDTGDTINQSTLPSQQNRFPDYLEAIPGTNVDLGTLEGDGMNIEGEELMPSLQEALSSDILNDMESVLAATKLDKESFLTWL
Protocol: (§1) Levels of total YAP were determined via ELISA. […] Immunoprecipitates were immunoblotted for the indicated proteins. […] Cells were treated with the indicated concentrations of inhibitor for 18 h and mRNA extracted for real time RT-PCR analyses. Measurements were performed in quadruplicate and means and+S.D. are shown. […] Cells were treated with (+) or without (−) NSC682769 (100 nM, 18 h) and harvested and separated into cytoplasmic and nuclear cellular fractions. Cytoplasmic versus nuclear material was subsequently immunoblotted for the indicated proteins. […] Values in top right corner of panels correspond to the percentage of nuclear localized YAP. […]
(§2) Protein and mRNA analyses, immunoprecipitation, in vitro bead-coupled inhibitor binding assays and HPLC analyses. […] Antigen-antibody complexes were detected using appropriate horseradish peroxidase-conjugated secondary antibodies (GE Healthcare) and enhanced chemiluminescence (Amersham ECL Prime). […] For quantitative RT-PCR, extraction of RNA was performed using Trizol® (Life Technologies). Total RNA was then quantified and integrity assessed using an Agilent 2100 Bioanalyzer (Agilent Technology). […] SYBR® Green quantitative PCR (Millipore Sigma) was performed in triplicate in 96-well optical plates on an ABI Prism 7000 Sequence Detection System (Life Technologies) according to the manufacturer's instructions. […]

[2] = tested on: LN229 xenografts; assay: Subcutaneous LN229 xenografts in SCID mice; type: in vivo
Source text: Protein levels were quantified by Western analyses (inset; representative immunoblots of YAP and actin levels from tumors from the indicated tumor treatment groups), and normalized to actin levels of harvested tumors from mice with the corresponding treatments as indicated and described in Materials and Methods. […] Scale bar, 20 μm. […] Data are expressed as the number of positive apoptotic bodies (brown, indicated by arrows) divided by high power field (hpf; 10-12 hpf/tumor). Values are means+S.D., *, P<0.05. Scale bar, 20 μm.
Animal studies. Xenografts of LN229 cells were performed in 4-6-week-old female C.B.-17-scid (Taconic) mice as previously described (Holmes B, et al. (2016) J Biol Chem 291: 14146-14159). Tumors were harvested at autopsy for immunoblot analysis. Sections of paraffin-embedded tumors on slides were processed for immunohistochemistry as previously described (Benavides-Serrato A, et al. (2017) PLoS One 12: e0176599). For GEMM studies, double transgenic GFAP-EGFRvIII; GFAP-Cre/Rictor^loxP/loxP mice as previously described were used (Bashir T, et al. (2012) PLoS One 7: e47741). Determinations of blood plasma and brain concentrations of NSC682769 following IV administration were performed in C57/BL6 mice.
NSC682769 inhibits GBM tumor growth in xenografted mice. To examine the effects of NSC682769 in vivo, the ability of the compound to inhibit the growth of LN229 xenografted tumors implanted subcutaneously in SCID mice was tested. Following implantation, when tumors reached ˜200 mm^3, mice were randomized into treatment groups receiving vehicle, 5 mg/kg/d and 20 mg/kg/d of NSC682769. […] The relative expression level of YAP was reduced in harvested tumors from NSC682769 treated animals (5 mg/kg; 20 mg/kg) as compared to vehicle treated animals consistent with the observed effects of the inhibitor in vitro (FIG. 5D; see also FIG. 3). Expression of the YAP-dependent genes CTGF and Cyr61 was reduced in inhibitor treated groups relative to vehicle (FIG. 5E).

[3] = tested on: YAP; assay: Western blot of YAP and TEAD levels in GBM lines; type: cell-based, human; details: LN229, T98G, GBM39; 18 h, increasing concentrations
Protocol: as §1, §2

[4] = biological target: T2, YAP (Homo sapiens, UniProt P46937); assay: Western blot of YAP and TEAD levels in GBM lines; type: cell-based; details: LN229, T98G, GBM39; 18 h, increasing concentrations
T2 construct: endogenous in cells; host or cells: LN229, T98G, GBM39
Protocol: as §1, §2

COc1ccc(-c2cc(-c3ccccc3)nc3c2CC(=O)Nc2ccccc2-3)cc1OC [NSC682769]
Binding of TEAD1-4 to YAP [1]: inhibited the binding of the four TEAD members to YAP | SMAD7, p73, FOS or TBXS association with YAP [1]: no appreciable effects | Tumor growth delay ([2]; 5 mg/kg/d): 11 days | Tumor growth inhibition at end of dosing period ([2]; 5 mg/kg/d): 66% | Relative expression level of YAP in harvested tumors ([2]; 5 mg/kg, 20 mg/kg versus vehicle): reduced | Tumor growth delay ([2]; 20 mg/kg/d): 16 days | Tumor growth inhibition at end of dosing period ([2]; 20 mg/kg/d): 83% | Overall survival relative to vehicle ([2]; 5 and 20 mg/kg/d): markedly extended | Harvested tumor weights ([2]; both dosing regimens versus vehicle): significant reduction | Apoptosis by TUNEL staining of tumors ([2]; both dosing regimens, day 12): enhancement of apoptotic death | Ki-67 staining of harvested tumors ([2]; day 12 after start of treatment): reduction | Expression of CTGF and Cyr61 in harvested xenografts ([2]; treated groups versus vehicle): reduced | TEAD levels [3]: unaffected | YAP levels [4]: decreased
